This assay relates to NIH 3T3 fibroblasts. The assay can be described thus: Fibroblast spreading and migration on fibronectin patterns with PEG hydrogel delivering compound. In kind it is cell-based. How it is done:
An exemplary method is described here for patterning cells onto surfaces using direct deposition of extracellular matrix (ECM) proteins and for delivering multiple compounds to individual cells. First, actin polymerization and stress fiber formation was followed over a 2 hour time period. Second, multiple ECM proteins were patterned on the same substrate and side-by-side analysis of single cells was done to characterize differential responses. Finally, polyethylene glycol with or without Cytochalasin-D (250 μM or 500 μM) was delivered to individual cells. A method was established for single cell analysis with multiple compounds on the same substrate. The NLP 2000 (NanoInk, Inc., Skokie, Ill.) fabrication system was used for patterning of ECM proteins and hydrogel composites. After approximately 4 hours, substrates were rinsed and non-specific cell binding is blocked with a solution of bovine serum albumin. NIH 3T3 fibroblasts (ATCC) were added at high density for 30 minutes, at which point non-adherent cells are washed and removed. Complete media was then added for between 0.5 and 3.5 hours before paraformaldehyde fixation, staining and analysis. Cells attach to approximately 75% of the patterns deposited onto glass surfaces. Cell morphology was controlled and actin polymerization was more developed with more elongated stress fibers at 2 hours versus earlier time points. […] Combinatorial experimentation is increasingly important with regard to the cellular microenvironment.
A mixture of PEG-DMA, 4-arm PEG thiol, and Cytochalasin D, a compound of interest, is patterned onto an epoxy-coated glass slide. After curing with UV, fibronectin, an ECM protein, was patterned onto the glass slide around the cured hydrogel. In a control hydrogel pattern, only PEG-DMA and 4-arm PEG thiol, but not any compound of interest, were used for fabricating the hydrogel.
Subsequently, 3T3 fibroblasts were plated onto the glass slide with PEG and fibronectin as described above. […] FIGS. 11 and 12 show the time course following spreading and migration of fibroblasts over a period of 4 hours.

Setting [1] is: cells cultured for 2 hours, Cytochalasin D in the PEG hydrogel vs control hydrogel, 15 patterns per group.

As for `C=C1[C@@H](C)[C@H]2[C@H](Cc3ccccc3)NC(=O)[C@]23[C@H](OC(C)=O)/C=C/[C@@](C)(O)C(=O)[C@@H](C)C/C=C/[C@H]3[C@@H]1O` [Cytochalasin D], under “250 and 500 μM in PEG hydrogel, time course over 4 hours, vs PEG without CytoD”, the “migration of fibroblasts from the fibronectin patterned area” value is recorded as “prevented migration of fibroblasts from the fibronectin patterned area”. Moreover, the “cell spreading and migration” value (Cytochalasin-D (250 μM or 500 μM) delivered in PEG hydrogel to individual cells) is “decline in cell spreading and migration”. Under setting [1], the “number of cells on patterns (images, average fluorescence intensity)” value is reported as “significantly fewer cells” and the “spreading and/or migration away from the patterns” value was “less spreading and/or migration away from the patterns”.
